Experimental data taken from patent publication US20260226079A1, “A STRATEGY FOR THE SELECTIVE REMOVAL OF MRI CONTRAST AGENTS” (Portland State University, priority 2023, published 2026).
Marks after values point to notes of the source that are not given here. Blank lines part the entries; values can stand above or below the compound they belong to.

Experiments:
[1] = SPAAC selective interception of GdDO3A-DBCO monoamide chelate on azide terminated PS beads, Gd in supernatant by ICP-MS; details: for % Gd Remaining: 50° C., 1,000 rpm, 24 hours
Description: To address potential stability issues associated with the GdTTHA-Alkyne and azide-PS beads system, tri-acetate mono-amide chelate systems were tested, that may experience fewer experimental difficulties. The initial SPAAC reactions were carried out with GdDO3A-DBCO monoamide chelate and azide terminated bead (FIG. 13). The Gd^3+ concentration was temporally monitored in the supernatant to gain a sense of reaction kinetics and optimal reaction times. To avoid mechanical stirring, a temperature-controlled thermomixer was used which mixed through agitation and was capable of batch testing. And the reaction was analyzed by ICP-MS.
All experiments were performed on a 100 mg bead scale with 0.5 equivalents of GdDO3A-DBCO monoamide chelate in water (1 mL) agitated at 1,000 rpm and 50° C. […] were selected: 3 minutes, 3 hours, 6 hours, 9 hours and 24 hours. The reactions were stopped at their respective time point, the sample was centrifuged and the supernatant was decanted and filtered. The beads were washed and centrifuged three times before the filtered supernatant was freeze dried and digested in HNO3 for ICP-MS analysis.
The effect of pH at relevant pH ranges of urine (~4.5-8) on the efficiency of Gd removal was investigated. Additionally, the role of an organic cosolvent was investigated to determine whether the aqueous medium is a limiting factor in efficiency. A pH range of 5-9 was tested with 1:1 v:v DMSO:H2O at 50° C. stirring at 1,000 rpm for 24 hours. The reaction mixtures were centrifuged, and the supernatant was decanted and filtered. The beads were washed and centrifuged in triplicate and the supernatants were freeze dried and digested for ICP-MS analysis, data summarized below in Table 1.
A multivariate approach was designed to establish the interaction between various levels of cosolvent volume, reaction time and temperature. The volume of DMSO was lowered with the hope of identifying other contributing factors that would lead to an enhanced outcome using a minimal amount of organic cosolvent. Additionally, the temperature ranged from 25° C. to 50° C. and the reaction time was assessed over 0.5 hours and 24 hours, and at pH 7. The scale of the beads and GdDO3A-DBCO monoamide chelate remained the same as previous trials at a 100 mg scale with 0.5 equivalents of GBCA while mixing at 1,000 rpm. The beads were centrifuged, washed, and digested in nitric acid for ICP-MS analysis using the methods described previously, results summarized below in Table 2.
Following the suboptimal results from previous trials with a smaller volume of DMSO cosolvent, the range of added cosolvent was increased to 50% v:v. Additionally, a simulated urine matrix, Surine™, was added to test if there were any significant effects from any urine constituents on the reaction efficiency. The experiments were run with variable reaction times, matrix and percentage DMSO at pH 7 and 37° C.

[2] = Temperature-dependent 17O R2p transverse relaxation rate (67.8 MHz, 11.74 T) and fitting; type: physicochemical; details: for τM, water residence lifetime / AO/h / Δ HM: fitted; for τM, water residence lifetime: pH 7.0 (GdDO3A-N3-monoamide), pH 6.8 (GdDO3A-DBCO-monoamide); for AO/h / Δ HM: pH 7.0 (N3), pH 6.8 (DBCO)
Description: FIG. 18 is a plot illustrating the GdDO3A-DBCO monoamide temperature-dependent R2p relaxation rate of ^17O measured at 67.8 MHz (11.74 T) pH 6.8, and a Gd^3+ concentration of 6.5 mM.
FIG. 20 is a plot illustrating the GdDO3A-azido monoamide temperature-dependent R2p relaxation rate of ^17O measured at 67.8 MHz (11.74 T) pH 7.0, and a Gd^3+ concentration of 8.5 mM.
(§1) Previous work by the inventors has shown that chelates functionalized with bulky aromatic groups have the propensity to self-associate in solution. […] The most common methods to determine the physico-chemical properties described by SBM theory are through fittings of experimental data obtained from the reduced ^17O transverse relaxation rate, R2p, as a function of temperature and relaxivity, ri, as a function of proton Larmor frequency i.e. nuclear magnetic resonance dispersion (NMRD) profiles.
Analysis of the reduced transverse relaxation rate constant of ^17O (R2p) as a function of temperature is the most common experimental technique to determine water residence lifetime, τM. The function typically resembles a bell curve where the inflection point temperature is an indicator of water exchange kinetics. The experiments were performed at a pH of 6.8 and a Gd^3+ concentration of 6.5 mM. Precipitation was observed below 295 K. The ^17O curve reached an inflection point at about 310 K, and the fitted value of τM was 545 ns, comparatively slow in the context of achieving high relaxivities but fast enough that exchange is in the fast exchange regime and rl is sensitive to changes in molecular tumbling, […].
Unsurprisingly, the shape is nearly identical to the DBCO-containing counterpart; both are monoamides and a similar water exchange rate would be expected. In this case, the water residence lifetime time constant (τM) was equivalent to the DBCO ligand at 545 ns.

[3] = 1H NMRD relaxivity profiles and parametric fitting (SBM / Lipari-Szabo); type: physicochemical; design: ^298D: unit not given here; details: for ^22r1 (298K), relaxivity: 20 MHz; for ^22r1 (298K), relaxivity / ER / Δ^2 / τRG, global rotational correlation time constant / τV: pH 7.0 (N3), pH 6.8 (DBCO); for EV / ^298D / a / q / r: fixed during fitting
Description: FIG. 19 is a plot illustrating the GdDO3A-DBCO monoamide ^1H NMRD profiles at 283 (blue, top line), 298 (black, middle line) and 310 K (red, lower line), measured at pH 6.8, and a Gd^3+ concentration of 1.32 mM.
FIG. 21 is a plot illustrating the GdDO3A-azido monoamide ^1H NMRD profiles at 283 (blue, top line), 298 (black, middle line) and 310 K (red, lower line), measured at pH 7.0.
as §1
The NMRD profiles of GBCAs are used to characterize several important physico-chemical parameters described by SBM theory. The most influential parameter which affects the shape of an NMRD curve is the rotational correlation time constant (τR) of the complex. Macromolecular species which tumble slowly impart a positive impact on relaxivity at all fields, but particularly at high fields presented as a characteristic “hump” in the 10-60 MHz region, distinct from quickly tumbling chelates in which relaxivity continues to decrease with increasing field strength. The molecular weight of the GdDO3A-DBCO monoamide would not be considered a large macromolecular structure; any indication of a slowly tumbling complex would be indicative of an aggregate species which we hypothesized as the self-associating chelate. As shown below in FIG. 19, relaxivity is quite high in low field regions where electronic spin relaxation contributes, followed by a characteristic dispersion around 1 MHz when the contribution drops off. There is a “hump” around 20 MHz which is indicative of a slowly tumbling species, consistent with a self-associating chelate. This macromolecular structure is the source of a rather high relaxivity of 7.1 mM^−1s^−1 (20 MHz, pH 6.8, 298 K) in comparison to most clinical agents which remain in the 4 mM^−1 s^−1-5 mM^−1s^−1 range.
The global and local rotational correlation time constants were 375 ps and 107 ps, respectively. […] This further corroborated the presence of a self-association which led to a decrease in the efficiency observed in selective interception trials.
The dispersion at 1-10 MHz corresponded to a typical drop-off of the electronic spin relaxation contribution, followed by continued decrease in relaxivity with increasing field strength. There was no evidence of a slowly tumbling structure which was reflected in a standard parametric fitting procedure with one discrete rotational contribution.

[4] = SPAAC selective interception of GdDO3A-azido monoamide chelate on DBCO-PS beads, Gd by ICP-MS; details: pH 7, 37° C.
Description: The GdDO3A-azido monoamide chelate and DBCO-PS beads shown in FIG. 15 were utilized in a similar experiment described previously. Due to the expensive DBCO starting material, the beads were generated on small scales. Accordingly, the scales of the experiments were reduced to 50 mg bead starting material and 0.5 equivalents of GBCA consistent with the loading capacity determined for each batch of DBCO-PS. All other conditions remained constant (1 mL reaction volume, 37° C., 1,000 rpm mixing at pH 7). Samples were prepared for ICP-MS analysis using the same method as previously described with fewer dilutions. The experiments were run with variable reaction times, matrix, and percentage DMSO.

[5] = 20 MHz and 298 K, comparison value; cited from earlier work
[6] = fitted, Lipari-Szabo approach, pH 6.8

- Gd Remaining (%) ([1]; Entry 1: 0.5 hr, Water, 0% DMSO, pH 7, 37° C.): 27%
- Gd Remaining (%) ([1]; Entry 1: cosolvent 0 μL, 25 °C, 0.5 hr, pH 7): 71%
- Gd Remaining (%) ([1]; Entry 2: 0.5 hr, Water, 50% DMSO, pH 7, 37° C.): 28%
- Gd Remaining (%) ([1]; Entry 2: cosolvent 0 μL, 25 °C, 24 hr, pH 7): 70%
- Gd Remaining (%) ([1]; Entry 3: 8 hr, Water, 0% DMSO, pH 7, 37° C.): 27%
- Gd Remaining (%) ([1]; Entry 3: cosolvent 100 μL, 25 °C, 0.5 hr, pH 7): 68%
- Gd Remaining (%) ([1]; Entry 4: 8 hr, Water, 50% DMSO, pH 7, 37° C.): 18%
- Gd Remaining (%) ([1]; Entry 4: cosolvent 100 μL, 25 °C, 24 hr, pH 7): 69%
- Gd Remaining (%) ([1]; Entry 5: 0.5 hr, Surine, 0% DMSO, pH 7, 37° C.): 28%
- Gd Remaining (%) ([1]; Entry 5: cosolvent 0 μL, 50 °C, 0.5 hr, pH 7): 67%
- Gd Remaining (%) ([1]; Entry 6: 0.5 hr, Surine, 50% DMSO, pH 7, 37° C.): 29%
- Gd Remaining (%) ([1]; Entry 6: cosolvent 0 μL, 50 °C, 24 hr, pH 7): 65%
- Gd Remaining (%) ([1]; Entry 7: 8 hr, Surine, 0% DMSO, pH 7, 37° C.): 30%
- Gd Remaining (%) ([1]; Entry 7: cosolvent 100 μL, 50 °C, 0.5 hr, pH 7): 69%
- Gd Remaining (%) ([1]; Entry 8: 8 hr, Surine, 50% DMSO, pH 7, 37° C.): 20%
- Gd Remaining (%) ([1]; Entry 8: cosolvent 100 μL, 50 °C, 24 hr, pH 7): 67%
- % Gd Remaining ([1]; pH 5, 1:1 v:v DMSO:H2O): 1.64%
- % Gd Remaining ([1]; pH 7, 1:1 v:v DMSO:H2O): 2%
- % Gd Remaining ([1]; pH 9, 1:1 v:v DMSO:H2O): 1.6%
- τM, water residence lifetime [2]: 545 ns
- AO/h [2]: −3.0 10^6 rad s^−1
- Δ HM [2]: 46 kJ/mol
- inflection point of 17O R2p curve ([2]; pH 6.8, Gd^3+ 6.5 mM): about 310 K
- temperature below which precipitation was observed ([2]; pH 6.8, Gd^3+ 6.5 mM): below 295 K
- ^22r1 (298K), relaxivity [3]: 7.1 mM⁻¹ s⁻¹
- aggregate rotates more slowly than the discrete chelate (global vs local rotation), fold ([3]; Lipari-Szabo fitting): over 3 ×
- S^□ [3, 6]: 0.36
- τRL, local rotational correlation time constant [3, 6]: 107 ps
- ER ([3]; fitted): 20.0 kJ/mol
- Δ^2 ([3]; fitted): 3.5 10^19 s^−2
- τRG, global rotational correlation time constant ([3]; fitted): 375 ps
- τV ([3]; fitted): 13 ps
- EV [3]: 1.0^a kJ mol^−1
- ^298D [3]: 2.24
- a [3]: 4.0^a Å
- q [3]: 1^a
- r [3]: 3.0^a Å
Structure (SMILES): O=C([O-])CN1CCN(CC(=O)[O-])CCN(CC(=O)NCCC(=O)N2Cc3ccccc3C#Cc3ccccc32)CCN(CC(=O)[O-])CC1.[Gd+3] [GdDO3A-DBCO monoamide]
- second order rate constant of interception reaction ([1]; extrapolated from integrated second order rate law, FIG. 14): 48.4 M⁻¹ s⁻¹

- Gd Remaining (%) ([4]; Entry 1: 0.5 hr, Water, 0% DMSO): 39%
- Gd Remaining (%) ([4]; Entry 2: 0.5 hr, Water, 50% DMSO): 36%
- Gd Remaining (%) ([4]; Entry 3: 8 hr, Water, 0% DMSO): 40%
- Gd Remaining (%) ([4]; Entry 4: 8 hr, Water, 50% DMSO): 35%
- Gd Remaining (%) ([4]; Entry 5: 0.5 hr, Surine, 0% DMSO): 27%
- Gd Remaining (%) ([4]; Entry 6: 0.5 hr, Surine, 50% DMSO): 37%
- Gd Remaining (%) ([4]; Entry 7: 8 hr, Surine, 0% DMSO): 39%
- Gd Remaining (%) ([4]; Entry 8: 8 hr, Surine, 50% DMSO): 38%
- τM, water residence lifetime [2]: 545 ns
- AO/h [2]: −3.2 10^6 rad s^−1
- Δ HM [2]: 46 kJ/mol
- ^22r1 (298K), relaxivity [3]: 4.7 mM⁻¹ s⁻¹
- ER ([3]; fitted): 17.9 kJ/mol
- Δ^2 ([3]; fitted): 5.7 10^19 s^−2
- τRG, global rotational correlation time constant ([3]; fitted): 70 ps
- τV ([3]; fitted): 8.4 ps
- EV [3]: 1.0^a kJ mol^−1
- ^298D [3]: 2.24
- a [3]: 4.0^a Å
- q [3]: 1^a
- r [3]: 3.0^a Å
Structure (SMILES): [Gd+3].[N-]=[N+]=NCCCNC(=O)CN1CCN(CC(=O)[O-])CCN(CC(=O)[O-])CCN(CC(=O)[O-])CC1 [GdDO3A-azido monoamide]

Structure (SMILES): O=C([O-])CN1CCN(CC(=O)[O-])CCN(CC(=O)O)CCN(CC(=O)[O-])CC1.[Gd+3] [GdDOTA]
- relaxivity [5]: 4.5 mM⁻¹ s⁻¹
